Assays:
[1] = test system: rats; experiment: toxicity, fatality ratio in rats; type: in vivo; details: for Fatality Ratio: rats
Experimental: The lesser toxicity of the 1-alkaryl derivatives is illustrated by the data of Table 3, which gives the fatality ratio in rats when the compounds were administered in the indicated dosages.

[2] = test system: reverse passive Arthus reaction; experiment: reverse passive Arthus reaction in the rat; type: in vivo, rat (male Sprague-Dawley); details: oral, 100 mg/kg of body weight; lesion measured 4 h after anti-B.S.A.; groups of 4 rats
Description: The anti-inflammatory activity of the compounds used in the invention was established using the reverse passive Arthus reaction in the rat as described by G. W. Carter and R. A. Krause in Federation Proceedings, Vol. 35, page 774, 1976. Although the carrageenin rat paw edema test (Winter et al., Proc. Soc. Exp. Biol. Med., 111, 554, 1962) can also be used to establish anti-inflammatory activity, the Arthus reaction, unlike carrageenin induced edema, is a well-characterized immune reaction which bears close resemblance to the pathogenesis of rheumatoid arthritis.
The Arthus reaction represents one of the oldest and best studied models of immunological injury. It is produced by the injection of antigen locally into a hyperimmunized animal or by the injection of a small amount of antibody into the skin of an animal that has just previously been given a large amount of soluble antigen intravenously. In both cases, the antigen and antibody become deposited in the walls of small venules. Plasma complement is rapidly bound and activated. […]
Thirty minutes after administration of the drug, each animal is injected intradermally with 0.05 ml of 1.44% anti-B.S.A. into the dorsal skin. […] Two perpendicular diameters of each lesion are measured. […]

[3] = test system: carrageenin pleurisy; experiment: modification of the carrageenin pleurisy assay; type: in vivo
Description: Also tested for comparison was phenylbutazone, a compound known to have anti-inflammatory activity.

Q: For `NC1=NN(c2cccc(C(F)(F)F)c2)CC1` [1-(m-trifluoromethylphenyl)-3-amino-2-pyrazoline, reference compound], which “Fatality Ratio” value ([1]; 285 mg/kg) is on record?
A: 8/10

Q: With `NC1=NN(Cc2ccccc2)CC1` [1-benzyl-3-amino-2-pyrazoline] as the compound, how does the “% Inhibition Of Lesion” value [2] read?
A: 57%

Q: What about the “% Inhibition Cells” value ([3]; 120 mg/kg) of the same compound?
A: 55%

Q: What about the “% Inhibition Volume Exudate” value ([3]; 120 mg/kg) of the same compound?
A: 76%

Q: And the “Fatality Ratio” value ([1]; 512 mg/kg)?
A: 0/10

Q: What about the “toxicity relative to 1-aryl derivatives, in words” value ([1]; compared with 1-aryl derivatives of 3-amino-2-pyrazoline) of the same compound?
A: markedly less toxic

Q: For `O=C1CCN(Cc2ccccc2)N1` [1-benzyl-3-pyrazolidinone, reference compound], which “% Inhibition Of Lesion” value [2] is on record?
A: 28%

Q: What does the source list for `CCCCC1C(=O)N(c2ccccc2)N(c2ccccc2)C1=O` [phenylbutazone, reference compound]?
A: % Inhibition Cells ([3]; 100 mg/kg): 13%; % Inhibition Volume Exudate ([3]; 100 mg/kg): 59%

From patent US4370339A, “Method for treating inflammatory conditions” (Abbott Laboratories, priority 1981, dated 1983)
